Assay results as given in ChEMBL document CHEMBL5143617 (Eur J Med Chem, 2022).
Converted amounts (≈) assume the structure as drawn. The source made the active and inactive calls. The rule behind the calls is not given here.

Columns and labels:
[1] = biological target: T1, cAMP and cAMP-inhibited cGMP 3',5'-cyclic phosphodiesterase 10A (Homo sapiens, UniProt Q9Y233); test: Inhibition of PDE10A (unknown origin) at 10 uM preincubated for 20 mins followed by substrate addition and measured after 1 hr by PEDlight AMP detection reagent based luminescence assay relative to control; details: time 80.0 min
Mus musculus [2] = test: Antipsychotic activity in CD-1 mouse assessed as inhibition of amphetamine-stimulated locomotor activity at 5 mg/kg, ip administered 30 mins prior to amphetamine stimulation and measured after 30 mins; assay type: functional, organism-based; details: time 60.0 min
[3] = Permeability of the compound across apical to basolateral side in human Caco-2 cells at pH 7.4; assay type: ADME, cell-based; details: Caco-2, pH 7.4, read-out: Papp
[4] = Aqueous solubility of compound in PBS buffer at pH 7.4 by UV absorbance based analysis; assay type: physicochemical
[5] = Aqueous solubility of compound in simulated intestinal fluid by UV absorbance based analysis; assay type: physicochemical
[6] = biological target: T2, 5-hydroxytryptamine receptor 1A (Homo sapiens, UniProt P08908); test: Agonist activity at human 5-HT1A receptor expressed in CHO-K1 cells assessed as stimulation of ERK1/2 phosphorylation incubated for 15 mins by Alpha LISA assay; assay type: functional, cell-based
T2 sequence (P08908 whole entry): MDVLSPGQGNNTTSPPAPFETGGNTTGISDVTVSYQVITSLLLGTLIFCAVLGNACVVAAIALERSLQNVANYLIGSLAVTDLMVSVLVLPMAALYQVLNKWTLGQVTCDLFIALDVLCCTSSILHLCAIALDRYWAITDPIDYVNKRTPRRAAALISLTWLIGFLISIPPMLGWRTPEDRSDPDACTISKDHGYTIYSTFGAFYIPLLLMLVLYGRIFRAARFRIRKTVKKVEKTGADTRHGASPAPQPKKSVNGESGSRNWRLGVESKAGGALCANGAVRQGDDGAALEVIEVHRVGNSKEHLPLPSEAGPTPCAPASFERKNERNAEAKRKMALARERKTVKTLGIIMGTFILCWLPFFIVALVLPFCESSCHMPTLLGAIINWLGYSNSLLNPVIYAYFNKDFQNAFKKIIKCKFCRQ

[7] = Efflux ratio of apparent permeability across basolateral to apical membrane to apical to basolateral membrane in human Caco-2 cells; assay type: ADME, cell-based
[8] = biological target: T2, 5-hydroxytryptamine receptor 1A; test: Agonist activity at human 5-HT1A receptor expressed in U2OS cells assessed as beta-arrestin recruitment incubated for 5 hrs by Tango assay; assay type: functional, cell-based
[9] = Ratio of drug concentration in striatum to plasma in mouse at 0.625 mg/kg, ip by LC/ESI-MS/MS analysis; assay type: ADME, organism-based; details: striatum and plasma
Mus musculus [10] = test: Antidepressant activity in Swiss albino mouse assessed as reduction in immobility time at 0.625 mg/kg, ip measured for last 4 mins of 6 mins test by forced swim test; assay type: functional; set-up: scale not given: the % may be the effect or the level left; details: 0.1 h
[11] = Tmax in mouse hippocampus at 0.625 mg/kg, ip by LC/ESI-MS/MS analysis; assay type: ADME, organism-based
[12] = biological target: T2, 5-hydroxytryptamine receptor 1A; test: Displacement of [3H]-[…] from human 5-HT1A receptor expressed in CHO-K1 cells membrane by scintillation counter analysis; assay type: cell membranes
[13] = biological target: 5-hydroxytryptamine receptor 6 (Homo sapiens) (UniProt P50406); test: Inhibition of 5-HT6 receptor (unknown origin); details: concentration not given here
[14] = biological target: T1, cAMP and cAMP-inhibited cGMP 3',5'-cyclic phosphodiesterase 10A; test: Inhibition of PDE10A (unknown origin) preincubated for 20 mins followed by substrate addition and measured after 1 hr by PEDlight AMP detection reagent based luminescence assay
[15] = Tmax in mouse frontal cortex at 0.625 mg/kg, ip by LC/ESI-MS/MS analysis; assay type: ADME, organism-based
[16] = Tmax in mouse plasma at 0.625 mg/kg, ip measured up to 480 mins by LC/ESI-MS/MS analysis; assay type: ADME, organism-based

T1 sequence (Q9Y233 whole entry): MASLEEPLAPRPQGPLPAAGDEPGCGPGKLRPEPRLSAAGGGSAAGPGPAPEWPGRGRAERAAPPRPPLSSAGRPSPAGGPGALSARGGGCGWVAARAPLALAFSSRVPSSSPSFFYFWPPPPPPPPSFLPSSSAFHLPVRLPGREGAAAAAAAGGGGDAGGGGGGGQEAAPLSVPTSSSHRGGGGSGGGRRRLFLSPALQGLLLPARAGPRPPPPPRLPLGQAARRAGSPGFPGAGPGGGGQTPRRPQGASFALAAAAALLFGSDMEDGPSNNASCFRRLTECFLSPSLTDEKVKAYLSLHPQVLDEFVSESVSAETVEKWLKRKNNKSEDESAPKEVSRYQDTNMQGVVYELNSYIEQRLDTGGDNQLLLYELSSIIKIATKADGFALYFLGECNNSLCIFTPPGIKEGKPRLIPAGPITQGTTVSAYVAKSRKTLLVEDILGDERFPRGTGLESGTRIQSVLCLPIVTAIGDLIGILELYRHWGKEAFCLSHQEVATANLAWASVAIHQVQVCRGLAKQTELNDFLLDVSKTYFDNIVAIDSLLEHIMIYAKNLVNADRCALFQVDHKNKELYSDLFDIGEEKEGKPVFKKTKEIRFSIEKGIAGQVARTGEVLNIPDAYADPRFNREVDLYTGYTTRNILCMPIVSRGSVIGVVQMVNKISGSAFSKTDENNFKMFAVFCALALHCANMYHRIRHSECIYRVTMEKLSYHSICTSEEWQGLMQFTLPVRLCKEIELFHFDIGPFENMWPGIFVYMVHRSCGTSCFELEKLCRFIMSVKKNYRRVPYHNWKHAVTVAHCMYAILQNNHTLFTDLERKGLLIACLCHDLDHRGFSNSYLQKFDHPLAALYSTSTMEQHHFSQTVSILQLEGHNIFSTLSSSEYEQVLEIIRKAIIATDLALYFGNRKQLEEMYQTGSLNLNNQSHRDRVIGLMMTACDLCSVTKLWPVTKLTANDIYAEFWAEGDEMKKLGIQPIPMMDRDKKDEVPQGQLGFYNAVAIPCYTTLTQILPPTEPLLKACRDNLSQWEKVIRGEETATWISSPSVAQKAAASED
Chain of 5-hydroxytryptamine receptor 6 (Homo sapiens) (P50406 whole entry): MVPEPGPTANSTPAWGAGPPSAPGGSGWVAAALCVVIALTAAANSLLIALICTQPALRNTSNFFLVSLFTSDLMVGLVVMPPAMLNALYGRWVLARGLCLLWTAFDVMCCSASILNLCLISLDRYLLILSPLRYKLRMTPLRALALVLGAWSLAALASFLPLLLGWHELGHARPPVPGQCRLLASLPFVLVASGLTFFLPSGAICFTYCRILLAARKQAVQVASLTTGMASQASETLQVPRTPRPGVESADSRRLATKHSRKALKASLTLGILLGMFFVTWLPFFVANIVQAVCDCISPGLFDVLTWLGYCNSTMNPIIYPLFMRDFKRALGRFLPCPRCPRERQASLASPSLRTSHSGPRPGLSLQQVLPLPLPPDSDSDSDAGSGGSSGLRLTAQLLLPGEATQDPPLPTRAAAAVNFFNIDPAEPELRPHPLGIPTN

## COc1cc2ncnc(N3CCC(CN4CCN(c5ccc(Cl)cc5)CC4)C3)c2cc1OC (stereo unspecified)
[1]
  inhibition: 21%
Mus musculus [2]
  Activity: Active
[3]
  Papp A→B: 0.05 ×10⁻⁶ cm/s
[4]
  solubility: 187 µM (≈ 87.5 µg/mL)
[5]
  solubility: 181 µM (≈ 84.7 µg/mL)
[6]
  EC50: 4.79 µM
[7]
  efflux ratio: 0.19
[8]
  EC50: 12 µM
[9]
  Kp: 87.4
Mus musculus [10]
  Activity: 50%
[11]
  Tmax: 30 min
[12]
  Ki: 363 nM
[13]
  inhibition: 8%
[14]
  IC50: 1700 nM
[15]
  Tmax: 8 h
[16]
  Tmax: 5 min
